Assay results as given in ChEMBL document CHEMBL1909046, “DrugMatrix in vitro pharmacology data”.

Legend:
[1] = DRUGMATRIX: Calcium Channel Type L, Benzothiazepine radioligand binding (ligand: [3H] Diltiazem); assay type: cell membranes, Rattus norvegicus, Wistar, Brain, Membrane; conditions: Not Active = under 50% inhibition at 10 µM
Mu-type opioid receptor = Mu-type opioid receptor (Homo sapiens, UniProt P35372); test: DRUGMATRIX: Opiate mu (OP3, MOP) radioligand binding (ligand: [3H] Diprenorphine); assay type: cell membranes, CHO-K1, Membrane; conditions: cho-k1; Not Active = under 50% inhibition at 10 µM
Chain of Mu-type opioid receptor (P35372 whole entry): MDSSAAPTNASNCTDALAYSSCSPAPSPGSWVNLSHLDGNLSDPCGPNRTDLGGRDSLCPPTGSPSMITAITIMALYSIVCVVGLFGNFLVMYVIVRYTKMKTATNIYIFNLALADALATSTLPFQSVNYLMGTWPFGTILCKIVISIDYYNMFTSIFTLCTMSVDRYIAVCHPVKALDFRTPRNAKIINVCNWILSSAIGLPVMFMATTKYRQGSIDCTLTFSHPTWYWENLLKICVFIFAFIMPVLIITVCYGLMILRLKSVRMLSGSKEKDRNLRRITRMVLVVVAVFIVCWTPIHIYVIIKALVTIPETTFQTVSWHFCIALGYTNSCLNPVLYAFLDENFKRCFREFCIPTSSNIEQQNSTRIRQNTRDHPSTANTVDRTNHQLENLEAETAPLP

[2] = DRUGMATRIX: ATPase, Na+/K+ enzyme inhibition (substrate: ATP); assay type: tissue-based, Sus scrofa, Heart; conditions: Not Active = under 50% inhibition at 10 µM
Cannabinoid receptor 1 = Cannabinoid receptor 1 (Homo sapiens, UniProt P21554); assay type: cell membranes, Membrane; conditions: chem-1; also: in other assays of this panel Not Active means under 50% inhibition at 10 µM
Chain of Cannabinoid receptor 1 (P21554 whole entry): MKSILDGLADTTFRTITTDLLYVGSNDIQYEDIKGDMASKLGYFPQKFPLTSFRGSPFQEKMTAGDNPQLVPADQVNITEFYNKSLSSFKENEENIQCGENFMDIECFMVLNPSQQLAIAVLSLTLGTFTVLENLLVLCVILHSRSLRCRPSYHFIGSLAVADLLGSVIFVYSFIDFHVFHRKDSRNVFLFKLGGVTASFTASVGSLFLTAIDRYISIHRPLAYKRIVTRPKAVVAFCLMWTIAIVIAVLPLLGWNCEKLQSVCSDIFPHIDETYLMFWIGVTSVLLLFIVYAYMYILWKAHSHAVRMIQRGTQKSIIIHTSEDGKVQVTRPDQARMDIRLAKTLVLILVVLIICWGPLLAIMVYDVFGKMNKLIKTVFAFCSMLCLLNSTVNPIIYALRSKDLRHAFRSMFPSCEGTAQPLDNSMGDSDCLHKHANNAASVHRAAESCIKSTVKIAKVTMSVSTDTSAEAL

[3] = DRUGMATRIX: GABAA, Flunitrazepam, Central radioligand binding (ligand: [3H] Flunitrazepam); assay type: cell membranes, Rattus norvegicus, Wistar, Brain, Membrane; conditions: Not Active = under 50% inhibition at 10 µM
[4] = target: Mitogen-activated protein kinase 3 (Homo sapiens, UniProt P27361); test: DRUGMATRIX: Protein Serine/Threonine Kinase, ERK1 enzyme inhibition (substrate: Myelin Basic Protein); design: species or system Escherichia coli; conditions: Not Active = under 50% inhibition at 10 µM
Chain of Mitogen-activated protein kinase 3 (P27361 whole entry): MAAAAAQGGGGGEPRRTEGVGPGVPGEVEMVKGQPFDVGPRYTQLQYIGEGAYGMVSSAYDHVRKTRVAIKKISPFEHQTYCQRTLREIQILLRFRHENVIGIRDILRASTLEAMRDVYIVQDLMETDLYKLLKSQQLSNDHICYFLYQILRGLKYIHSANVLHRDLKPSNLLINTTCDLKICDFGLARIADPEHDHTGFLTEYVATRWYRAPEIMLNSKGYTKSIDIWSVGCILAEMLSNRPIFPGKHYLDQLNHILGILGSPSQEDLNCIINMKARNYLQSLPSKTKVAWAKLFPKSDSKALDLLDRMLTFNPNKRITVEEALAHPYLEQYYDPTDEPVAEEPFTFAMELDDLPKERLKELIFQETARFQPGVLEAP

[5] = target: T1, Polyunsaturated fatty acid lipoxygenase ALOX15 (Oryctolagus cuniculus, UniProt P12530); test: biochemical; assay type: tissue-based, Reticulocytes; conditions: reticulocytes;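 also: inhibition of 15-lipoxygenase enzyme activity measured with linoleic acid as the substrate; in other assays of this panel Not Active means under 50% inhibition at 10 µM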
T1 sequence (P12530 whole entry): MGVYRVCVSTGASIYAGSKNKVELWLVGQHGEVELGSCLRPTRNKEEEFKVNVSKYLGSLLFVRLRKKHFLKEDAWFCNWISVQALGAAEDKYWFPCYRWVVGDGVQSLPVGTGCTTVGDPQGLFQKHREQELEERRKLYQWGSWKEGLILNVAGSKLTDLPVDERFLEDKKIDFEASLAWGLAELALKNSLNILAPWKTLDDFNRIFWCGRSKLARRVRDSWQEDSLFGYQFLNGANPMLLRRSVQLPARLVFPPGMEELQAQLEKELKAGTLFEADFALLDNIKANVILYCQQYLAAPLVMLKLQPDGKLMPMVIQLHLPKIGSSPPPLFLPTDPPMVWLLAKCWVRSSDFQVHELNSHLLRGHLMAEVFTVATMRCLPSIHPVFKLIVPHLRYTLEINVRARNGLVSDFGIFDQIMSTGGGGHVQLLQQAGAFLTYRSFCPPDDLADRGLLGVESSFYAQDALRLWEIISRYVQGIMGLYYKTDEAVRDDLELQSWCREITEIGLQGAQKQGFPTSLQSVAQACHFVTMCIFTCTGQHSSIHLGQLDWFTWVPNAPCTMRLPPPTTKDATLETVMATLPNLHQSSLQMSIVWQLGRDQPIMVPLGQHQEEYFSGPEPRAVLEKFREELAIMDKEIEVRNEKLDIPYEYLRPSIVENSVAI

[6] = target: Sodium-dependent noradrenaline transporter (Homo sapiens, UniProt P23975); test: DRUGMATRIX: Norepinephrine Transporter radioligand binding (ligand: [125I] RTI-55); assay type: cell membranes, MDCK, Membrane; conditions: mdck; Not Active = under 50% inhibition at 10 µM
Chain of Sodium-dependent noradrenaline transporter (P23975 whole entry): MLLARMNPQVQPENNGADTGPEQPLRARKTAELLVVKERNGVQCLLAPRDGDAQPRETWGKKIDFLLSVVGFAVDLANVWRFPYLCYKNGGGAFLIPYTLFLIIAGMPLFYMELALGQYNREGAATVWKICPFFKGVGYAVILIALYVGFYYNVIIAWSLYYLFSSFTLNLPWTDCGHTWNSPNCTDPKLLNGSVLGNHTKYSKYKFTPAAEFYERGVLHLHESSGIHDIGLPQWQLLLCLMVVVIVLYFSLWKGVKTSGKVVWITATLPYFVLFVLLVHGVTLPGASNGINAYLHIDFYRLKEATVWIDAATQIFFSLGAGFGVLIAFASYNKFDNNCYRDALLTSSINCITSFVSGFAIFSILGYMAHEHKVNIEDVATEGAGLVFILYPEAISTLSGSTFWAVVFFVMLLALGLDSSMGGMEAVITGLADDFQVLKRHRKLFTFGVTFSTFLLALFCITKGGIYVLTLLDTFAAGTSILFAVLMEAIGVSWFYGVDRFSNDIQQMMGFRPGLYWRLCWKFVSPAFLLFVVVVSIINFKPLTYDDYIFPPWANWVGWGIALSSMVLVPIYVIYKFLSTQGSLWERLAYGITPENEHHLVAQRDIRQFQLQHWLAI

[7] = DRUGMATRIX: Purinergic P2X radioligand binding (ligand: [3H] alpha, beta-Methylene-ATP); assay type: cell membranes, Oryctolagus cuniculus, New Zealand albino, Urinary bladder, Membrane; conditions: Not Active = under 50% inhibition at 10 µM
[8] = target: Epidermal growth factor receptor (Homo sapiens, UniProt P00533); test: DRUGMATRIX: Protein Tyrosine Kinase, EGF Receptor enzyme inhibition (substrate: Poly(Glu:Tyr)); assay type: cell-based, Insect cells; conditions: insect cells; Not Active = under 50% inhibition at 10 µM
Chain of Epidermal growth factor receptor (P00533 whole entry): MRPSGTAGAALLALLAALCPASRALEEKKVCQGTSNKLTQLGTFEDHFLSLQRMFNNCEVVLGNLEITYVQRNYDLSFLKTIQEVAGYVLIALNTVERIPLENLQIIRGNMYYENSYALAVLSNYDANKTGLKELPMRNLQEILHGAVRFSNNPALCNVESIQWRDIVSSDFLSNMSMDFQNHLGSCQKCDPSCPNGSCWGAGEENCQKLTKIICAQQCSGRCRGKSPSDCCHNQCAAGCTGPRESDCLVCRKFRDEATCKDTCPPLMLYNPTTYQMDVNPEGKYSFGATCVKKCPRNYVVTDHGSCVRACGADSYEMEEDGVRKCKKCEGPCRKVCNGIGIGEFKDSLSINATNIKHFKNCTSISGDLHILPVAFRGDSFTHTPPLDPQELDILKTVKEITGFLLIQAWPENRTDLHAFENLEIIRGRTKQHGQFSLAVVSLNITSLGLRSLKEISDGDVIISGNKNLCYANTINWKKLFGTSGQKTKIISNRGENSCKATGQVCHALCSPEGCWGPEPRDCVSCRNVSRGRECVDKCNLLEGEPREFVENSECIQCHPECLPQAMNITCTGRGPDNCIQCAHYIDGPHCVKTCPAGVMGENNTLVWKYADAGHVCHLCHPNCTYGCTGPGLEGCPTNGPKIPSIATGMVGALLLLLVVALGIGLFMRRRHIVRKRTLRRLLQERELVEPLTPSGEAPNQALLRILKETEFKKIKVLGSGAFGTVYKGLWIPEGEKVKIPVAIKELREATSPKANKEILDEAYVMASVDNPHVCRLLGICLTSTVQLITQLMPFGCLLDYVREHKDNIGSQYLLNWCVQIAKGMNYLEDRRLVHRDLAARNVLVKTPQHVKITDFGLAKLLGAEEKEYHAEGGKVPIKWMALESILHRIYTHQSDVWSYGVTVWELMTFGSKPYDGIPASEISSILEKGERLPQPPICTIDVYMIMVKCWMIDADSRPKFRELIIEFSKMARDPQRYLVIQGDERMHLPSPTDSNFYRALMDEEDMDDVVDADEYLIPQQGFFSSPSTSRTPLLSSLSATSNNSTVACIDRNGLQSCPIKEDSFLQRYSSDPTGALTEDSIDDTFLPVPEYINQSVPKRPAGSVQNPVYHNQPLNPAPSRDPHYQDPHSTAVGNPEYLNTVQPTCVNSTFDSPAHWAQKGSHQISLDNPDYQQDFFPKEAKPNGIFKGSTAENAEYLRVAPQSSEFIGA

Substance-P receptor = Substance-P receptor (Homo sapiens, UniProt P25103); assay type: cell membranes, CHO, Membrane; conditions: cho; also: in other assays of this panel Not Active means under 50% inhibition at 10 µM
Chain of Substance-P receptor (P25103 whole entry): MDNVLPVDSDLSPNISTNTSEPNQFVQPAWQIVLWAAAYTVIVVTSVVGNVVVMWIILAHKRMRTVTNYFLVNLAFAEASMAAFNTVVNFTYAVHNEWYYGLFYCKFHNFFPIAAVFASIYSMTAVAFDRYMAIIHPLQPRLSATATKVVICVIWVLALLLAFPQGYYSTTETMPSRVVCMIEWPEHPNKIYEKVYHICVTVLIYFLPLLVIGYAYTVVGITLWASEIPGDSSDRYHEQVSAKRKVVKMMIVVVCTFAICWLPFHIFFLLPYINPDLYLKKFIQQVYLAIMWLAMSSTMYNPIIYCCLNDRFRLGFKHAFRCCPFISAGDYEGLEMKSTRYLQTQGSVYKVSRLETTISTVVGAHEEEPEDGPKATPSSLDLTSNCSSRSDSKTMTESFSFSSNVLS

[9] = DRUGMATRIX: Tumor Necrosis Factor (TNF), Non-Selective radioligand binding (ligand: [125I] TNF-alpha); assay type: cell membranes, Membrane; conditions: u-937; Not Active = under 50% inhibition at 10 µM
Caspase-1 = target: T2, Caspase-1 (Homo sapiens, UniProt P29466); design: species or system Escherichia coli;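 also: Caspase-1 enzyme inhibition assay with a peptide substrate; in other assays of this panel Not Active means under 50% inhibition at 10 µM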
T2 sequence (P29466 whole entry): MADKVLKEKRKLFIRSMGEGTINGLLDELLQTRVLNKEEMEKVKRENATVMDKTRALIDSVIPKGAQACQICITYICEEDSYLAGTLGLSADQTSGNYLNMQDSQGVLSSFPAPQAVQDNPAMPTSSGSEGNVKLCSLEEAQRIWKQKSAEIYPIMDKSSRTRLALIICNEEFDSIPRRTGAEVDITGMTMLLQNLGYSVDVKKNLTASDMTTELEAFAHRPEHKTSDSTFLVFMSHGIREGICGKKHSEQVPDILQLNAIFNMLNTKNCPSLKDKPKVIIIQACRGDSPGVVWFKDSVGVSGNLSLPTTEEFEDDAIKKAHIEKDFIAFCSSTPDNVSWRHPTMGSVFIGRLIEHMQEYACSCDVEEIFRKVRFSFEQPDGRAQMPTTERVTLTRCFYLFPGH

Cytochrome P450 2E1 = Cytochrome P450 2E1 (Homo sapiens, UniProt P05181); conditions: bti-tn-5b1-4; also: in other assays of this panel Not Active means under 50% inhibition at 10 µM
Chain of Cytochrome P450 2E1 (P05181 whole entry): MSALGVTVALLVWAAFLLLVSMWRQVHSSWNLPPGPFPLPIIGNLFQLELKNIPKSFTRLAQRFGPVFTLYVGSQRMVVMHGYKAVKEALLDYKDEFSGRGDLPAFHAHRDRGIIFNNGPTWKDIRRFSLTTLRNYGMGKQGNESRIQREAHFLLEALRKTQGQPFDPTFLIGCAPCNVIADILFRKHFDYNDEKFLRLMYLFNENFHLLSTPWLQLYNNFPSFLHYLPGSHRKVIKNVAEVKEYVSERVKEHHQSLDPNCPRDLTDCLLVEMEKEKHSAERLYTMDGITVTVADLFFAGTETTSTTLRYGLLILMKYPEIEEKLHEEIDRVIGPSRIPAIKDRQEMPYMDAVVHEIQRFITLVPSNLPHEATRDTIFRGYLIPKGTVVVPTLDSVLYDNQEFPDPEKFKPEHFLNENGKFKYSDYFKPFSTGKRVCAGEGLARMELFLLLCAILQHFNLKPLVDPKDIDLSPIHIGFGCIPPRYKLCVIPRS

[10] = target: T3, Type-2 angiotensin II receptor (Homo sapiens, UniProt P50052); assay type: cell-based; conditions: cho-k1; also: in other assays of this panel Not Active means under 50% inhibition at 10 µM
T3 sequence (P50052 whole entry): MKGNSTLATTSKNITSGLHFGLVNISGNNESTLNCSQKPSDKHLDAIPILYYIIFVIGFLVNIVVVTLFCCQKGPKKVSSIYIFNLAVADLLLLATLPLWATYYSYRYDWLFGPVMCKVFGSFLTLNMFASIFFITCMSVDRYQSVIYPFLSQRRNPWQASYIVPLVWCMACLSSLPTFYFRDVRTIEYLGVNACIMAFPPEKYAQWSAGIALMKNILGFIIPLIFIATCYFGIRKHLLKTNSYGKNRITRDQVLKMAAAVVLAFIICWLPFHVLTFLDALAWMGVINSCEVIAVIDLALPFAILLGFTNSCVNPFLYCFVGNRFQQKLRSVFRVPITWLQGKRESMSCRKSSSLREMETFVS

CN(N=O)C(=O)N[C@@H](C=O)[C@@H](O)[C@H](O)[C@H](O)CO [STREPTOZOCIN]
Not Active: IC50 [1] | Ki [1] | IC50 (Mu-type opioid receptor) | IC50 [2] | Ki [2] | IC50 (Cannabinoid receptor 1) | IC50 [3] | Ki [3] | IC50 [4] | IC50 [5] | IC50 [6] | IC50 [7] | Ki [7] | IC50 [8] | IC50 (Substance-P receptor) | IC50 [9] | Ki [9] | IC50 (Caspase-1) | IC50 (Cytochrome P450 2E1) | Ki (Cytochrome P450 2E1) | IC50 [10]

CC(C)(C)NCC(O)c1cc(O)cc(O)c1 (stereo not drawn) [TERBUTALINE]
Not Active: IC50 [1] | Ki [1] | IC50 (Mu-type opioid receptor) | IC50 [2] | Ki [2] | IC50 (Cannabinoid receptor 1) | IC50 [3] | Ki [3] | IC50 [4] | IC50 [5] | IC50 [6] | IC50 [7] | Ki [7] | IC50 [8] | IC50 (Substance-P receptor) | IC50 [9] | Ki [9] | IC50 (Caspase-1) | IC50 (Cytochrome P450 2E1) | Ki (Cytochrome P450 2E1) | IC50 [10]

Nc1ccc(S(N)(=O)=O)cc1 [SULFANILAMIDE]
Not Active: IC50 [1] | Ki [1] | IC50 (Mu-type opioid receptor) | IC50 [2] | Ki [2] | IC50 (Cannabinoid receptor 1) | IC50 [3] | Ki [3] | IC50 [4] | IC50 [5] | IC50 [6] | IC50 [7] | Ki [7] | IC50 [8] | IC50 (Substance-P receptor) | IC50 [9] | Ki [9] | IC50 (Caspase-1) | IC50 (Cytochrome P450 2E1) | Ki (Cytochrome P450 2E1) | IC50 [10]

CC[C@H]1OC(=O)[C@H](C)[C@@H](O[C@H]2C[C@@](C)(OC)[C@@H](O)[C@H](C)O2)[C@H](C)[C@@H](O[C@@H]2O[C@H](C)C[C@H](N(C)C)[C@H]2O)[C@](C)(O)C[C@@H](C)/C(=N\OCOCCOC)[C@H](C)[C@@H](O)[C@]1(C)O [ROXITHROMYCIN]
Not Active: IC50 [1] | Ki [1] | IC50 (Mu-type opioid receptor) | IC50 [2] | Ki [2] | IC50 (Cannabinoid receptor 1) | IC50 [3] | Ki [3] | IC50 [4] | IC50 [5] | IC50 [6] | IC50 [7] | Ki [7] | IC50 [8] | IC50 (Substance-P receptor) | IC50 [9] | Ki [9] | IC50 (Caspase-1) | IC50 (Cytochrome P450 2E1) | Ki (Cytochrome P450 2E1) | IC50 [10]

NC(CO)(CO)CO [TROMETHAMINE]
Not Active: IC50 [1] | Ki [1] | IC50 (Mu-type opioid receptor) | IC50 [2] | Ki [2] | IC50 (Cannabinoid receptor 1) | IC50 [3] | Ki [3] | IC50 [4] | IC50 [5] | IC50 [6] | IC50 [7] | Ki [7] | IC50 [8] | IC50 (Substance-P receptor) | IC50 [9] | Ki [9] | IC50 (Caspase-1) | IC50 (Cytochrome P450 2E1) | Ki (Cytochrome P450 2E1) | IC50 [10]

CCOC(=O)[C@H](CCc1ccccc1)N[C@@H](C)C(=O)N1[C@H](C(=O)O)C[C@@H]2CCC[C@@H]21
Not Active: IC50 [1] | Ki [1] | IC50 (Mu-type opioid receptor) | IC50 [2] | Ki [2] | IC50 (Cannabinoid receptor 1) | IC50 [3] | Ki [3] | IC50 [4] | IC50 [5] | IC50 [6] | IC50 [7] | Ki [7] | IC50 [8] | IC50 (Substance-P receptor) | IC50 [9] | Ki [9] | IC50 (Caspase-1) | IC50 (Cytochrome P450 2E1) | Ki (Cytochrome P450 2E1) | IC50 [10]

COc1cc(C(=O)NC2CCCNC2)cc(OC)c1OC (stereo not drawn) [TROXIPIDE]
Not Active: IC50 [1] | Ki [1] | IC50 (Mu-type opioid receptor) | IC50 [2] | Ki [2] | IC50 (Cannabinoid receptor 1) | IC50 [3] | Ki [3] | IC50 [4] | IC50 [5] | IC50 [6] | IC50 [7] | Ki [7] | IC50 [8] | IC50 (Substance-P receptor) | IC50 [9] | Ki [9] | IC50 (Caspase-1) | IC50 (Cytochrome P450 2E1) | Ki (Cytochrome P450 2E1) | IC50 [10]

CCC[C@@H]1C[C@@H](C(=O)N[C@@H]([C@H]2O[C@H](SC)[C@H](O)[C@@H](O)[C@H]2O)[C@@H](C)O)N(C)C1 [LINCOMYCIN]
Not Active: IC50 [1] | Ki [1] | IC50 (Mu-type opioid receptor) | IC50 [2] | Ki [2] | IC50 (Cannabinoid receptor 1) | IC50 [3] | Ki [3] | IC50 [4] | IC50 [5] | IC50 [6] | IC50 [7] | Ki [7] | IC50 [8] | IC50 (Substance-P receptor) | IC50 [9] | Ki [9] | IC50 (Caspase-1) | IC50 (Cytochrome P450 2E1) | Ki (Cytochrome P450 2E1) | IC50 [10]
